Reference: a compilation of properties of binary mixtures (doi:10.1039/c7cp04078d)

Test: xn = mol fraction of the nth substance listed
Conditions: 303.15 K, 100 kPa

Row | Compound | viscosity (x2 = 0) | viscosity (x2 = 0.1) | viscosity (x2 = 0.33) | viscosity (x2 = 0.5) | viscosity (x2 = 0.67) | viscosity (x2 = 0.8) | viscosity (x2 = 0.9) | viscosity (x2 = 0.2)
1 | CC(=O)[O-].CCCC[N+](CCCC)(CCCC)CCCC + CCCCN | 680 mPa·s | 390 mPa·s | 78 mPa·s | 28 mPa·s | 16 mPa·s | 11 mPa·s | 9 mPa·s | –
2 | CC(=O)[O-].CCCC[N+](CCCC)(CCCC)CCCC + CC(=O)O | 680 mPa·s | 460 mPa·s | 169 mPa·s | 83 mPa·s | 41 mPa·s | 25 mPa·s | 19 mPa·s | 297 mPa·s
